Series [1] has as its system Fasciculus retroflexus (Fr) structure. Kind of series: Mouse brain analysis: Fr structure after cocaine treatment. The conditions noted are these: wild-type mice, cocaine 25 mg/kg/day for three months, compared to control wild-type mice.
Experimental: Cocaine treated mice were C57BL/6j mice treated with cocaine at 10 a.m. with a dosage of 25 mg/kg/day for three months while the control mice (Hausp^WT) and Hausp^K444R mice were treated with saline. All mice were housed under conditions of controlled humidity (55±10%) and temperature (22±2° C.), with a reversed light cycle in this experiment.
After the above treatments, all organs were obtained after mouse heart perfusion by saline, and fixed by 4% paraformaldehyde solution for 24 h for H&E, LFB, Silver, Masson's trichrome staining and immunohistochemistry (IHC). Fresh tissues were immediately homogenized in T-PER™ by tissue homogenizer (HT mini homogenizer, OPS Diagnostics LLC, USA) for Western blot analysis.
Mouse brains were processed following SHIELD processing protocol according to Park, Y. G. et al. 2019. Mice were perfused with ice-cold PBS and then with the SHIELD perfusion solution (ice-cold 1× PBS containing 4% (w/v) PFA and GE38 (polyglycerol 3-polyglycidyl ether) supernatant). Collected brains were incubated in the same perfusion solution at 4° C. for two days. […] Images were reconstructed to a multi-channel-z stack using Imaris file converter, and the regions of the whole brain, habenula region were masked and quantified using the surface function in Imaris software version 9.5.
Series [2] has as its system heart rate and blood pressure induced by cocaine. Briefly: Heart rate and blood pressure of cocaine induced mice. Type of series: in vivo, C57BL/6JNar1 mice. The conditions noted are these: cocaine 25 mg/kg/day i.p. three months, then compound 25 mg/kg/day three months; FIG. 15. How it is done: (§1) C57BL/6JNar1 mice of 6-months age were used in this Experiment. This Experiment included four groups: the normal control group (saline group), the cocaine+saline group, the cocaine+Compound 2-2 group, and the cocaine+Compound 3-3 group. There were 7 mice in the cocaine+Compound 2-2 group and 6 mice each in the rest of the groups. The normal control group received no experimental treatment. […] Heart rate, systolic blood pressure and mean blood pressure of all four groups were measured with a device (MK-2000ST, NP-NIBP Monitor for Mice & Rats, Muromachi, Japan) and the results thereof were shown in FIG. 15. Moreover, the Fr structure of all four groups was measured according to the method of Experiment 7 and the results thereof were shown in FIG. 16 and FIGS. 17A and 17B.

In series [3] the test system is lever press induced by cocaine. Briefly: Lever press test (cocaine self-administration). It is filed as in vivo, mice. The conditions noted are these: 10 mg/kg intraperitoneally 10 min prior to cocaine self-administration; for cumulative cocaine reinforcements: FIG. 13G; for latency to first response in mice treated with cocaine: FIG. 13H; for lever press frequencies induced by cocaine treatment: FIGS. 13A to 13F. How it is done: Mice were anesthetized with isoflurane (induction and maintenance at 4%-5%) for surgical implantation of a jugular vein catheter connected to a head-mounted entry port. Briefly, the right jugular vein was exposed, and the catheter tubing was inserted and secured to the vein. The catheter was passed under the skin to an incision on the head, and the port was secured to the skull with dental cement anchored by screws. Mice were given buprenorphine (0.05-0.10 mg/kg, intraperitoneal.) for analgesia and allowed to recover for 7-10 days before beginning self-administration. Catheter patency was maintained by daily infusion of 100 μl heparin (120 U/μl) through the catheter and treated with Cefazolin, 200 mg/kg, subcutaneously, to prevent bacterial infections.
The lever press test was done in extra wide mouse operant chambers with a modified top (Med Associates, VT, USA). The chamber contained a retractable lever, a food pellet receptacle connected to a pellet dispenser, with a stimulus light above the pellet receptacle, and contained a house light. Cocaine was delivered by a syringe pump located outside the chamber, and the drug delivery tubing was connected to the mice through a swivel (Instech, Plymouth Meeting, PA, USA) and the swivel arm connected on top of the chamber to allow free movement of the mice during self-administration. All the sessions were remotely operated and recorded by MED-PC V software (Med Associates, VT, USA). Mice were pre-trained with food through pressing the levers and were food-restricted during the study. After training, mice were provided ad libitum access to water and food.
Self-administration sessions took place once daily during the light-dark cycle for 14 consecutive days. Before starting the study, mice were allowed to acclimate to the housing for approximately 3 days. The availability of cocaine reward was indicated by illumination of the house light and pressing levers. […] Each infusion was paired with a cue (1 s illumination of the stimulus green light) followed by a 10-second time-out signaled by turning off the house light. […] Each chamber was operated under a 3-hour session, or until mice received 100 infusions (20 mg/kg) of cocaine (to prevent cocaine overdose). No treatment groups were implanted with a catheter and placed in the operant chambers with identical cues but not connected to the syringe pump and received no reward for pressing the active levers. Vehicle or inhibitor (Compound 2-2, Compound 2-3, or Compound 3-3) with a dosage of 10 mg/kg was injected intraperitoneally for 10 min prior to cocaine self-administration. The content of the vehicle is 0.5% DMSO, 25% PEG-300, 4% Tween-80, and 70.5% saline. Mice met criteria for acquisition of self-administration when they: (1) self-administered at least 30 infusions in a session; (2) >85% of responses were on the active […]; and (3) had no more than 20% variation in number of infusions between sessions. The lever press frequency and number within 3 hours indicate the cocaine addiction symptom.

The subject of series [4] is Fasciculus retroflexus (Fr) structure. Kind of series: Fr structure of cocaine induced mice after treatment. Type of series: in vivo, C57BL/6JNar1 mice. The conditions noted are these: cocaine 25 mg/kg/day i.p. three months, then compound 25 mg/kg/day three months; for length of Fr diminished by cocaine treatment: FIG. 16, 17A; for volume of Fr diminished by cocaine treatment: FIG. 16, 17B. How it is done: as §1

The target of another series is T1, SIAH1 (Homo sapiens, UniProt Q8IUQ4).
T1 sequence (Q8IUQ4 1-282): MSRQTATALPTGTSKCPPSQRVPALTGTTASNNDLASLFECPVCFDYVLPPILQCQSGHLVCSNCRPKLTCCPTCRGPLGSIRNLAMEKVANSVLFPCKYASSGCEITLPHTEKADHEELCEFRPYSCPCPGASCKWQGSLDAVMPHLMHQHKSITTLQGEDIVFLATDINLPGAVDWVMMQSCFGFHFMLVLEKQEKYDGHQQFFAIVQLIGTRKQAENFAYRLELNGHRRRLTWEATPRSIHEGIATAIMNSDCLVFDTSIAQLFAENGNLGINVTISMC
Kind of series: E3-ligase auto ubiquitination assay (K48-linked polyubiquitination of HAUSP mediated by SIAH1). Type of series: biochemical. The conditions noted are these: 37° C., 1 hour, Western blot with Ub-K48 antibody, compared to vehicle; FIG. 14A, 14B. As to the method: SIAH1 mediates the K48-linked polyubiquitination of HAUSP. Therefore, for the ubiquitination assay, SIAH1 was incubated in the solution (0.25 mg/1 ml, total 100 μg) containing 20 mM Tris-HCl buffer (pH 8.0), 100 mM NaCl, 1 mM DTT and 40% glycerol and HAUSP (50 μg) was in 50 mM HEPES pH 7.5, 100 mM NaCl, 1 mM TCEP (tris (2-carboxyethyl) phosphine) buffer. […] The E3-ligase auto ubiquitination assay was performed by E3 Ligase Auto-Ubiquitilylation Assay Kit (Abcam, ab139469, UK).
In general terms: In western blotting, separated proteins are transferred to a membrane and probed.

Series [5] has as its system HAUSP levels in SH-SY5Y cells. Kind of series: Western blot of HAUSP in cocaine-treated SH-SY5Y cells. The conditions noted are these: cocaine 200 μM with inhibitor, 24 hr; for HAUSP levels decreased by cocaine in SH-SY5Y cells (western blot): FIG. 14C; for relative protein expression ratios of HAUSP normalized with β-actin: quantified with ImageJ, FIG. 14D.
Series [6] relates to cocaine conditioned place preference. Briefly: Conditioned place preference (CPP) test induced by cocaine. Type of series: in vivo, mice. The conditions noted are these: compound 10 mg/kg 10 mins before cocaine 25 mg/kg i.p.; FIG. 12D. From the text: (§2) Conditioned place preference (CPP) is a classical conditioning paradigm used in behavioral neuroscience to study the rewarding and aversive properties of drugs or other stimuli. It involves associating a particular environment or location with the experience of a rewarding or aversive stimulus, such as drugs, food, or electric shock. In CPP experiment, mice were first trained to associate one compartment of a box and then, they were placed in the neutral compartment and allowed to freely explore both compartments, and animals' preference for one compartment over the other was measured. After vehicle/Compound 2-2 (10 mg/kg)/Compound 2-3 (10 mg/kg)/Compound 3-3 (10 mg/kg) treatment for 10 mins, the well-trained mice were administrated with cocaine (25 mg/kg, i.p.) for 30 mins. The content of the vehicle is 0.5% DMSO, 25% PEG-300, 4% Tween-80, and 70.5% saline. The locomotion activity experiment was the same as the method of open field test described in Experiment 2.

The subject of series [7] is locomotion activity induced by cocaine. Briefly: Locomotion activity (open field test) of cocaine induced mice. It is filed as in vivo. The conditions noted are these: compound 10 mg/kg 10 mins before cocaine 25 mg/kg i.p.; FIGS. 12A to 12C.
Source text: 8 mice from Preparation Example 2 were randomly chosen to conduct Locomotion Activity I. The open fields using white acrylic chambers measured 50 cm (length)×50 cm (width)×38 cm (height) were made from white high density and non-porous plastics. Once the Video Tracking software (ANY-maze, Stoelting Co, IL, USA) was opened, the cursor was moved to the “Single-Subject Tracking” option located under the “Data Acquisition” tab and single-clicked to open this option. The software package used in this protocol allows the tracking of up to 6 individual mice at one time. The mice were brought to open fields to acclimate to the procedure room for 30 minutes (min) prior to starting the test. The tracking plot of randomly chosen 6 mice was recorded and analyzed by ANY-maze software.
as §2

On to `COC(=O)[C@H]1[C@@H](OC(=O)c2ccccc2)C[C@@H]2CC[C@H]1N2C` [cocaine], for which, in series [1] (FIG. 10D), the “diameter of Fr” value is on record as “decreased”. For the same compound, in series [1] (FIG. 10E), the “length of Fr” value is “decreased”.
In the case of `COCCNC(=O)c1ccccc1NC(=O)c1c(C)cc(C)cc1C` [Compound 3-3, N-(2-((2-Methoxyethyl)carbamoyl)phenyl)-2,4,6-trimethylbenzamide], in series [2], the “blood pressure induced by cocaine” value was “decreased” and the “heart rate induced by cocaine” value is recorded as “decreased”. Besides, in series [3], the cumulative cocaine reinforcements result is given as “decreased”, the “latency to first response in mice treated with cocaine” value (“latency to first response” for short) is reported as “increased” and the “lever press frequencies induced by cocaine treatment” value (“lever press frequencies induced” below) is recorded as “decreased”. For the same compound, in series [4], the “length of Fr diminished by cocaine treatment” value was “partially rescued” and the “volume of Fr diminished by cocaine treatment” value is recorded as “partially rescued”. In addition, the “inhibition of K48-linked polyubiquitination of HAUSP mediated by SIAH1” value (“inhibition” for short) against SIAH1 was “can inhibit”. For the same compound, in series [5], the “HAUSP levels decreased by cocaine in SH-SY5Y cells (western blot)” value (shortened to “HAUSP levels decreased by cocaine”) was “can restore” and the “relative protein expression ratios of HAUSP normalized with β-actin” value is on record as “can restore”. Moreover, the “time spent in cocaine paired compartments (CPP test)” value (shortened to “time spent”) in series [6] was “decreased”. Moreover, in series [7], the “increased locomotion activity or increased distance traveled induced by cocaine treatment” value is “decreased”.
Regarding `COCCNC(=O)c1ccc(Cl)cc1NC(=O)c1c(C)cc(C)cc1C` [Compound 2-3, N-(5-Chloro-2-((2-methoxyethyl)carbamoyl)phenyl)-2,4,6-trimethylbenzamide], in series [3], the cumulative cocaine reinforcements entry is “decreased”, the “latency to first response” value was “increased” and the “lever press frequencies induced” value is “decreased”. Moreover, the “inhibition” value against SIAH1 was “can inhibit”. In addition, in series [5], the “HAUSP levels decreased by cocaine” value was “can restore” and the “relative protein expression ratios of HAUSP normalized with β-actin” value is “can restore”. The “time spent” value in series [6] is on record as “decreased”. In addition, the “increased locomotion activity or increased distance traveled induced by cocaine treatment” value in series [7] is given as “decreased”.
`COCCNC(=O)c1ccc(Cl)cc1NC(=O)c1ccccc1C` [Compound 2-2, 4-Chloro-N-(2-methoxyethyl)-2-(2-methylbenzamido) benzamide]: in series [2], the “blood pressure induced by cocaine” value was “decreased” and the “heart rate induced by cocaine” value was “decreased”. In addition, in series [3], the cumulative cocaine reinforcements entry is given as “decreased”, the “latency to first response” value is reported as “increased” and the “lever press frequencies induced” value is reported as “decreased”. Moreover, in series [4], the “length of Fr diminished by cocaine treatment” value is “partially rescued” and the “volume of Fr diminished by cocaine treatment” value is “partially rescued”. Besides, the “inhibition” value against SIAH1 was “can inhibit”. Also, in series [5], the “HAUSP levels decreased by cocaine” value is listed as “can restore” and the “relative protein expression ratios of HAUSP normalized with β-actin” value is recorded as “can restore”. Besides, the “time spent” value in series [6] was “decreased”. Also, the “increased locomotion activity or increased distance traveled induced by cocaine treatment” value in series [7] is on record as “decreased”.

For the origin of these results see US20250091982A1, “Pharmaceutical Composition, Methods of Use Thereof for Treating Cocaine Addiction, and Novel Use of Hausp K444R Point Mutant Mouse” (PHARWAR BIOTECHNOLOGY, INC. PTE. LTD., priority 2022, published 2025).
